The test system of series [1] is human pancreatic cancer xenografts (cancer mice). The following applies: mouse, in vivo. As for the experimental part:
Treatment persisted for 31, 29 and 29 days for mice containing AsPC-1, BxPC-3 and Capan-1 tumor xenografts, respectively. Mean tumor volumes are calculated and plotted. All results are expressed as the mean±SEM (n=6 mice per group). On the final day of treatment, tumor volumes were compared between the drug-treated and control groups. **, p<0.01; ***, p<0.001; ****, p<0.0001 (versus vehicle).

Series [2] relates to TNF-alpha, IL-1beta and IL-6. The experiment in a line: LPS-induced endotoxemia: in vivo serum cytokine release. On the set-up: species or system mouse. The following applies: free peptides, at this dose; serum 90 min after 30 mg/kg LPS. As for the experimental part:
One hour later, mice received i.p. injection of 30 mg/kg LPS from E. coli 055:B5 (Sigma). In some experiments, all formulations were i.p. administered 1 and 3 h after LPS injection. The viability of mice was examined hourly. Body weights were measured daily. In all of the animal experiments, blood samples were collected via a sub-mandibular (cheek) bleed at 90 min after administration of LPS. Statistical analysis of survival curves was performed by the Kaplan-Meier test. Comparisons were made using two-tailed Student's t test. The production of cytokines in serum was measured by a standard sandwich cytokine ELISA procedure using TNF-alpha, IL-1beta and IL-6 ELISA kits (Pierce Biotechnology, Thermo Scientific, Rockford, Ill.) according to the instructions of the manufacturer. Statistical significances in cytokine analysis ELISA data were determined by two-tailed Student's t test.
Naïve, female C57BL/6 mice at 8 to 10 weeks of age (18 to 21 g) from the Jackson Laboratory were randomly grouped (10 mice per group) and i.p. injected with vehicle or the indicated doses of dexamethasone (DEX), GF9, G-TE21, G-HV21 and G-KV21. One hour later, mice received i.p. injection of 30 mg/kg LPS from E. coli 055:B5 (Sigma). […] Body weights were measured daily. […] Statistical significances in cytokine analysis ELISA data were determined by two-tailed Student's t test.

The test system of another series is J774 macrophages. The experiment in a line: in vitro macrophage uptake (endocytosis) of rho B-labeled peptides and lipopeptide complexes. The following applies: for mechanism of macrophage endocytosis (scavenger receptors): J774, 4 h or 22 h, G-HV21 and G-KV21 in the presence of HDL; for in vitro macrophage uptake, presence vs. absence of HDL: rho B-labeled peptides. It is filed as cell-based, murine. As for the experimental part:
In Vitro Macrophage Uptake of GF9HDL and GA/E31HDL A quantitative in vitro macrophage assay of endo-cytosis of rho B-labeled HDL-mimicking lipopeptide complexes by J774 macrophage was performed as described. (18-20) Briefly, BALB/c murine macrophage J774A.1 cells (ATCC) were cultured at 37° C. with 5% CO2 in Dulbecco's modified Eagle's medium (Cellgro Mediatech, Manassas, Va.) with 2 mM glutamine, 100 U/mL penicillin, 0.1 mg/mL streptomycin, and 10% heat-inactivated fetal bovine serum (Cellgro Mediatech) and grown to approximately 90% confluency in 12-well tissue culture plates (Corning Costar, Corning, N.Y.).
Cells were washed twice using phosphate-buffered saline and lysed using Passive Lysis Buffer (Promega, Madison, Wis.). Rho B fluorescence was measured in the lysates with 544-nm excitation and 590-nm emission filters, using a Fluoroscan Ascent CF fluorescence microplate reader (Thermo Labsystems, Vantaa, Finland). Protein concentrations in the lysates were measured using Bradford reagent (Sigma-Aldrich) and an MRX microplate reader (Dynex Technologies, Chantilly, Va.) according to the manufacturer's recommended protocol.

The test system of series [3] is LPS-challenged mice. The experiment in a line: survival of LPS-challenged (septic shock) mice. It counts as in vivo. The following applies: vs vehicle. An excerpt: FIG. 15B. **, P=0.001 to 0.01 as compared with vehicle-treated animals.
The test system of series [4] is LPS-challenged mice. The experiment in a line: cytokine production in LPS-challenged mice. It counts as in vivo. The following applies: treated 1 h before LPS challenge. As to the method:
Control peptide represents an equimolar mixture of two peptides, each of them comprising two amino acid domains A and B where domain A represents a non-functional 9 amino acids-long sequence of the TREM-1 inhibitory therapeutic peptide sequence wherein, Lys5 is substituted with Ala5, whereas domain B is a sulfoxidized methionine residue-containing 22 amino acids-long apolipoprotein A-I helix 4 or 6 peptide sequence, respectively. *, P=0.01 to 0.05 as compared with animals treated with 5 mg/kg TRIOPEP in free form; ***, P=0.0001 to 0.001 as compared with PBS-treated animals.

The next series has as its target T1, TREM-1 (Mus musculus, UniProt Q9JKE2).
T1 construct: BALB/c murine macrophage J774A.1 cells were grown at 37° C. in six-well tissue culture plates containing glass coverslips; endogenous in cells; host or cells: BALB/c murine macrophage cell line J774A.1 (ATCC)
The experiment in a line: colocalization of labeled peptide with TREM-1 in the cell membrane (images). It is filed as cell-based. The following applies: GE31 delivered to macrophages by SLP, G-KV21 pre-incubated with HDL, J774 cells.

The record followed here is US20210322508A1, “PEPTIDES AND COMPOSITIONS FOR TARGETED TREATMENT AND IMAGING” (SIGNABLOK, INC., priority 2018, published 2021).

Residues, ends and D or L forms follow the SMILES beside them.

T1 sequence (O54885 22-114 partner): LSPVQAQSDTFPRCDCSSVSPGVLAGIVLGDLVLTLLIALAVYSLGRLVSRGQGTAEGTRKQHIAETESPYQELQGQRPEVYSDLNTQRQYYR
T1 sequence (Q9JKE2 21-230): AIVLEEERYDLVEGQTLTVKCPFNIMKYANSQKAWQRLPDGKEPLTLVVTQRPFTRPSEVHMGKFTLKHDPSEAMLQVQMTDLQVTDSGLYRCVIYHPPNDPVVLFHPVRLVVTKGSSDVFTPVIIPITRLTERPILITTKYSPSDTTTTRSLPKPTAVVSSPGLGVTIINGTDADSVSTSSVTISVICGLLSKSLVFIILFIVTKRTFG

As for `CC(C)C[C@H](NC(=O)[C@H](Cc1ccccc1)NC(=O)CN)C(=O)N[C@@H](CO)C(=O)N[C@@H](CCCCN)C(=O)N[C@@H](CO)C(=O)N[C@@H](CC(C)C)C(=O)N[C@H](C(=O)N[C@@H](Cc1ccccc1)C(=O)O)C(C)C` [GF9] (H-GFLSKSLVF-OH), the “tolerability in cancer mice” value in series [1] is “Non-Toxic”.
On to `CC(C)C[C@H](NC(=O)[C@H](Cc1ccccc1)NC(=O)CN)C(=O)N[C@@H](CO)C(=O)N[C@@H](CCCCN)C(=O)N[C@@H](CO)C(=O)N[C@@H](CC(C)C)C(=O)N[C@H](C(=O)N[C@@H](Cc1ccccc1)C(=O)NCC(=O)N[C@@H](CCC(=O)O)C(=O)N[C@@H](CCC(=O)O)C(=O)N[C@@H](CC[S+](C)[O-])C(=O)N[C@@H](CCCNC(=N)N)C(=O)N[C@@H](CC(=O)O)C(=O)N[C@@H](CCCNC(=N)N)C(=O)N[C@@H](C)C(=O)N[C@@H](CCCNC(=N)N)C(=O)N[C@@H](C)C(=O)N[C@@H](Cc1c[nH]cn1)C(=O)N[C@H](C(=O)O)C(C)C)C(C)C` (stereo partly drawn) [G-HV21] (HELM PEPTIDE1{G.F.L.S.K.S.L.V.F.G.E.E.[CS(=O)CC[C@H](N[*:1])C(=O)[*:2]].R.D.R.A.R.A.H.V}$$$$V2.0), for which, in series [2], the “LPS-stimulated cytokine production in vivo” value is “inhibit LPS-stimulated cytokine production in vivo”. Further, in the series on J774 macrophages, the “mechanism of macrophage endocytosis (scavenger receptors)” value was “SR-mediated in a time-dependent manner and is largely driven by SR-A”; the “in vitro macrophage uptake, presence vs. absence of HDL” value is on record as “significantly increases”. In addition, the “survival of LPS-challenged mice” value in the series on LPS-challenged mice [3] is reported as “significantly improve survival”. Also, the “TNF-alpha, IL-6 and IL-1beta production in mice at 90 min post LPS challenge” value in the series with LPS-challenged mice [4] is “significantly inhibit the LPS-induced cytokine release”.
On to `CC(C)C[C@H](NC(=O)[C@H](Cc1ccccc1)NC(=O)CN)C(=O)N[C@@H](CO)C(=O)N[C@@H](CCCCN)C(=O)N[C@@H](CO)C(=O)N[C@@H](CC(C)C)C(=O)N[C@H](C(=O)N[C@@H](Cc1ccccc1)C(=O)N[C@@H](Cc1c[nH]c2ccccc12)C(=O)N[C@@H](CCC(N)=O)C(=O)N[C@@H](CCC(=O)O)C(=O)N[C@@H](CCC(=O)O)C(=O)N[C@@H](CC[S+](C)[O-])C(=O)N[C@@H](CCC(=O)O)C(=O)N[C@@H](CC(C)C)C(=O)N[C@@H](Cc1ccc(O)cc1)C(=O)N[C@@H](CCCNC(=N)N)C(=O)N[C@@H](CCC(N)=O)C(=O)N[C@@H](CCCCN)C(=O)N[C@H](C(=O)O)C(C)C)C(C)C` (stereo partly drawn) [G-KV21] (HELM PEPTIDE1{G.F.L.S.K.S.L.V.F.W.Q.E.E.[CS(=O)CC[C@H](N[*:1])C(=O)[*:2]].E.L.Y.R.Q.K.V}$$$$V2.0), for which the “LPS-stimulated cytokine production in vivo” value in series [2] is on record as “inhibit LPS-stimulated cytokine production in vivo”. Moreover, in the series with J774 macrophages, the “mechanism of macrophage endocytosis (scavenger receptors)” value is “SR-mediated in a time-dependent manner and is largely driven by SR-A”; the “in vitro macrophage uptake, presence vs. absence of HDL” value was “significantly increases”. Moreover, in the series with LPS-challenged mice [3], the “survival of LPS-challenged mice” value was “significantly improve survival”. Besides, the “colocalization with TREM-1 in the cell membrane” value on TREM-1 is listed as “colocalization”. Also, the “TNF-alpha, IL-6 and IL-1beta production in mice at 90 min post LPS challenge” value in the series with LPS-challenged mice [4] is listed as “significantly inhibit the LPS-induced cytokine release”.
